Where a SMILES comes first, the peptide text is derived from it. Bridges are numbered along the chain shown (N, C = ends).
assay: Inhibition of bovine trypsin using benzoyl-L-arginine p-nitroanilide as substrate after 5 to 60 mins; design: species or system Bos taurus

Compound | Ki
C[C@@H](O)[C@@H]1NC(=O)[C@H](Cc2c[nH]c3ccccc23)NC(=O)[C@@H](N)CSSC[C@@H](C(=O)O)NC(=O)[C@@H]2CCCN2C(=O)[C@H](CCCCN)NC(=O)[C@@H]2CCCN2C(=O)[C@@H]2CCCN2C(=O)[C@H](Cc2ccc(O)cc2)NC(=O)[C@H](CO)NC(=O)[C@H](CCCCN)NC1=O | 335 nM
CC(C)C[C@H](N)C(=O)N[C@H](C(=O)N[C@@H](CCCNC(=N)N)C(=O)NCC(=O)N[C@H]1CSSC[C@@H](C(=O)N[C@@H](Cc2ccccc2)C(=O)N[C@H](C(=O)N[C@@H](CCCNC(=N)N)C(=O)O)C(C)C)NC(=O)[C@H](C)NC(=O)[C@H](CCCCN)NC(=O)[C@@H]2CCCN2C(=O)[C@@H]2CCCN2C(=O)[C@H](Cc2ccc(O)cc2)NC(=O)[C@H](CO)NC(=O)[C@H](CCCCN)NC(=O)[C@H]([C@@H](C)O)NC(=O)[C@H](Cc2c[nH]c3ccccc23)NC1=O)C(C)C (H-LVRGCWTKSYPPKACFVR-OH; disulfide 5-15) | 252 nM
CC(C)C[C@H](N)C(=O)N[C@H](C(=O)N[C@@H](CCCNC(=N)N)C(=O)NCC(=O)N[C@H]1CSSC[C@@H](C(=O)O)NC(=O)[C@@H]2CCCN2C(=O)[C@H](CCCCN)NC(=O)[C@@H]2CCCN2C(=O)[C@@H]2CCCN2C(=O)[C@H](Cc2ccc(O)cc2)NC(=O)[C@H](CO)NC(=O)[C@H](CCCCN)NC(=O)[C@H]([C@@H](C)O)NC(=O)[C@H](Cc2c[nH]c3ccccc23)NC1=O)C(C)C (H-LVRGCWTKSYPPKPC-OH; disulfide 5-15) | 322 nM
CC(C)C[C@H](N)C(=O)N[C@H](C(=O)N[C@@H](CCCNC(=N)N)C(=O)NCC(=O)N[C@H]1CSSC[C@@H](C(=O)N[C@@H](Cc2ccccc2)C(=O)N[C@H](C(=O)N[C@@H](CCCNC(=N)N)C(=O)O)C(C)C)NC(=O)[C@@H]2CCCN2C(=O)[C@H](CCCCN)NC(=O)[C@@H]2CCCN2C(=O)[C@@H]2CCCN2C(=O)[C@H](Cc2ccc(O)cc2)NC(=O)[C@H](CO)NC(=O)[C@H](CCCCN)NC(=O)[C@H](C)NC(=O)[C@H](Cc2c[nH]c3ccccc23)NC1=O)C(C)C (H-LVRGCWAKSYPPKPCFVR-OH; disulfide 5-15) | 1110 nM
CC(C)C[C@H](N)C(=O)N[C@H](C(=O)N[C@@H](CCCNC(=N)N)C(=O)NCC(=O)N[C@H]1CSSC[C@@H](C(=O)N[C@@H](Cc2ccccc2)C(=O)N[C@H](C(=O)N[C@@H](CCCNC(=N)N)C(=O)O)C(C)C)NC(=O)[C@@H]2CCCN2C(=O)[C@H](C)NC(=O)[C@@H]2CCCN2C(=O)[C@@H]2CCCN2C(=O)[C@H](Cc2ccc(O)cc2)NC(=O)[C@H](CO)NC(=O)[C@H](CCCCN)NC(=O)[C@H]([C@@H](C)O)NC(=O)[C@H](Cc2c[nH]c3ccccc23)NC1=O)C(C)C (H-LVRGCWTKSYPPAPCFVR-OH; disulfide 5-15) | 400 nM
CC(C)C[C@H](N)C(=O)N[C@H](C(=O)N[C@@H](CCCNC(=N)N)C(=O)NCC(=O)N[C@H]1CSSC[C@@H](C(=O)N[C@@H](Cc2ccccc2)C(=O)N[C@H](C(=O)N[C@@H](CCCNC(=N)N)C(=O)O)C(C)C)NC(=O)[C@H](CCCCN)NC(=O)[C@@H]2CCCN2C(=O)[C@@H]2CCCN2C(=O)[C@H](Cc2ccc(O)cc2)NC(=O)[C@H](CO)NC(=O)[C@H](CCCCN)NC(=O)[C@H]([C@@H](C)O)NC1=O)C(C)C (H-LVRGCTKSYPPKCFVR-OH; disulfide 5-13) | 245 nM
CC(C)C[C@H](N)C(=O)N[C@H](C(=O)N[C@@H](CCCNC(=N)N)C(=O)NCC(=O)N[C@H]1CSSC[C@@H](C(=O)N[C@@H](Cc2ccccc2)C(=O)N[C@H](C(=O)N[C@@H](CCCNC(=N)N)C(=O)O)C(C)C)NC(=O)[C@@H]2CCCN2C(=O)[C@H](CCCCN)NC(=O)[C@@H]2CCCN2C(=O)[C@@H]2CCCN2C(=O)[C@H](Cc2ccc(O)cc2)NC(=O)[C@H](CO)NC(=O)[C@H](CCCCN)NC(=O)[C@H]([C@@H](C)O)NC(=O)[C@H](C)NC1=O)C(C)C (H-LVRGCATKSYPPKPCFVR-OH; disulfide 5-15) | 670 nM

The remaining compounds from weak to strong by Ki, led by results:

Ki | Compound
245 nM | CC(C)C[C@H](N)C(=O)N[C@H](C(=O)N[C@@H](CCCNC(=N)N)C(=O)NCC(=O)N[C@H]1CSSC[C@@H](C(=O)N[C@@H](Cc2ccccc2)C(=O)N[C@H](C(=O)N[C@@H](CCCNC(=N)N)C(=O)O)C(C)C)NC(=O)[C@@H]2CCCN2C(=O)[C@H](CCCCN)NC(=O)[C@@H]2CCCN2C(=O)[C@@H]2CCCN2C(=O)[C@H](Cc2ccc(O)cc2)NC(=O)[C@H](C)NC(=O)[C@H](CCCCN)NC(=O)[C@H]([C@@H](C)O)NC(=O)[C@H](Cc2c[nH]c3ccccc23)NC1=O)C(C)C (H-LVRGCWTKAYPPKPCFVR-OH; disulfide 5-15)
155 nM | CC(C)C[C@H](N)C(=O)N[C@H](C(=O)N[C@@H](CCCNC(=N)N)C(=O)NCC(=O)N[C@H]1CSSC[C@@H](C(=O)N[C@@H](Cc2ccccc2)C(=O)N[C@H](C(=O)N[C@@H](CCCNC(=N)N)C(=O)O)C(C)C)NC(=O)[C@@H]2CCCN2C(=O)[C@H](CCCCN)NC(=O)[C@H](C)NC(=O)[C@@H]2CCCN2C(=O)[C@H](Cc2ccc(O)cc2)NC(=O)[C@H](CO)NC(=O)[C@H](CCCCN)NC(=O)[C@H]([C@@H](C)O)NC(=O)[C@H](Cc2c[nH]c3ccccc23)NC1=O)C(C)C (H-LVRGCWTKSYPAKPCFVR-OH; disulfide 5-15)
142 nM | CC(C)C[C@H](N)C(=O)N[C@H](C(=O)N[C@@H](CCCNC(=N)N)C(=O)NCC(=O)N[C@H]1CSSC[C@@H](C(=O)N[C@@H](Cc2ccccc2)C(=O)N[C@H](C(=O)N[C@@H](CCCNC(=N)N)C(=O)O)C(C)C)NC(=O)[C@@H]2CCCN2C(=O)[C@H](CCCCN)NC(=O)[C@@H]2CCCN2C(=O)[C@@H]2CCCN2C(=O)[C@H](C)NC(=O)[C@H](CO)NC(=O)[C@H](CCCCN)NC(=O)[C@H]([C@@H](C)O)NC(=O)[C@H](Cc2c[nH]c3ccccc23)NC1=O)C(C)C (H-LVRGCWTKSAPPKPCFVR-OH; disulfide 5-15)
129 nM | C[C@H](NC(=O)[C@@H](N)CO)C(=O)N1CCC[C@H]1C(=O)N[C@@H](CCCNC(=N)N)C(=O)NCC(=O)N[C@H]1CSSC[C@@H](C(=O)N[C@@H](CCCCN)C(=O)O)NC(=O)[C@@H]2CCCN2C(=O)[C@H](CCCCN)NC(=O)[C@@H]2CCCN2C(=O)[C@@H]2CCCN2C(=O)[C@H](Cc2ccc(O)cc2)NC(=O)[C@H](CO)NC(=O)[C@H](CCCCN)NC(=O)[C@H]([C@@H](C)O)NC(=O)[C@H](Cc2c[nH]c3ccccc23)NC1=O (H-SAPRGCWTKSYPPKPCK-OH; disulfide 6-16)
116 nM | CC(C)C[C@H](NC(=O)[C@H](C)NC(=O)CN)C(=O)N[C@@H](CCCNC(=N)N)C(=O)NCC(=O)N[C@H]1CSSC[C@@H](C(=O)N[C@@H](CCCCN)C(=O)O)NC(=O)[C@@H]2CCCN2C(=O)[C@H](CCCCN)NC(=O)[C@@H]2CCCN2C(=O)[C@@H]2CCCN2C(=O)[C@H](Cc2ccc(O)cc2)NC(=O)[C@H](CO)NC(=O)[C@H](CCCCN)NC(=O)[C@H]([C@@H](C)O)NC(=O)[C@H](Cc2c[nH]c3ccccc23)NC1=O (H-GALRGCWTKSYPPKPCK-OH; disulfide 6-16)
20 nM | CC[C@H](C)[C@@H]1NC(=O)[C@@H]2CCCN2C(=O)[C@@H]2CCCN2C(=O)[C@H]([C@@H](C)CC)NC(=O)[C@H](CO)NC(=O)[C@H](CCCCN)NC(=O)[C@H]([C@@H](C)O)NC(=O)[C@@H](NC(=O)[C@H](CCCNC(=N)N)NC(=O)CN)CSSC[C@@H](C(=O)N[C@@H](Cc2ccccc2)C(=O)N2CCC[C@H]2C(=O)N[C@@H](CC(=O)O)C(=O)O)NC1=O

— ChEMBL document CHEMBL2440100, “Therapeutic potential of the peptide leucine arginine as a new nonplant bowman-birk-like serine protease inhibitor” (J Med Chem, 2013)
